# Measurements published in patent US6291470A, “Indole derivatives process for producing the same and medicinal uses of the same” (Toray Industries, Inc., priority 1992, dated 2001).
# Columns and labels:
# δ-opioid receptor [1] = target: T1, δ-opioid receptor (Mus musculus, UniProt P32300); assay: δ-opioid antagonist activity against DPDPE in mouse vas deferens (MVD); settings: against DPDPE; test compound 100 nM, 20 min; read-out: Ke
# T1 construct: from tissue; host or cells: vas deferens of male ddy mice
# In short: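 Vas deferens from male ddy mice in Krebs-Henseleit at 37 °C (5% CO2/95% O2), field-stimulated at 0.1 Hz, 5.0 ms, isometric contraction recorded. IC50 dose ratio, Ke and Schild pA2 derived.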
# [2] = test system: delayed type hypersensitivity; assay: Delayed type hypersensitivity suppression test using mice from which adrenal glands have been removed; type: in vivo, mouse; settings: for % Suppression: subcutaneous, totally 8 days
# Source text: The mechanism of immunosuppression of the compound of the present invention was examined using delayed type hypersensitivity suppression test using mice from which adrenal glands have been removed.
# BALB/c mice (male, 7 weeks old) were used, and each group consisted of 4-5 mice. Spleen cells (1×10^7) obtained from a donor mouse (C57BL/6) was subcutaneously administered to sensitize the mice. On Day 7 from the sensitization, the spleen cells (5×10^6) of the donor were subcutaneously administered on the right footpad and spleen cells (5×10^6) obtained from a mouse of the same strain as the recipient mice were subcutaneously administered on the left footpad. Twenty four hours later, the thicknesses of the right and left footpads were measured with a dial thickness gage, and the difference in thicknesses of the right and left footpads before the induction of the reaction and 24 hours after the induction of the reaction was employed as the index of the degree of the reaction.
# The adrenectomy was performed by cutting the back of each recipient mouse under anesthesia with ether before the sensitization and removing the adrenal gland. Sham operation was performed by cutting the back of each recipient mouse but not removing the adrenal gland.
# The test compound was dissolved in 10% DMSO-water and was subcutaneously administered everyday from the day of sensitization to the day of induction of the reaction, totally 8 days. In the control group, 10% DMSO-water alone was administered in the same manner. The volume of administration was 10 ml/kg in both study groups and in the control groups.
# [3] = test system: delayed type hypersensitivity; assay: Mouse Delayed Type Hypersensitivity Reaction Suppression Test-2 (donor spleen cells, subcutaneous administration); type: in vivo; settings: C57BL/6 spleen cells; subcutaneous everyday from day of sensitization, totally 8 days; BALB/c
# [4] = test system: Cerebral cortex nerve cells; assay: Brain cell-protecting action, MTT method; type: cell-based, rat; settings: 10 μM
# Method: The brain cell-protecting action was examined by MTT [3-(4,5-dimethylthiazol-2-yl)-2,5-diphenyltetrazolium bromide] method. MTT yields a dark blue formazan compound by mitochondria in living cells. This compound was dissolved in isopropanol and absorbance at 570 nm was measured, thereby measuring the number of living cells.
# Cerebral cortex nerve cells of fetal rats of 17 days old were placed in wells of a 96-well plate at a population density of 1×10^5 cells/cm^2. Then 10 μM of a test compound was added and the cells were cultured in 200 μl of mixed medium of D-MEM/F.12 (1:1) for 3 days (37° C., 5%CO2). In a control group, the medium alone was added Then […] of MTT solution in PBS (6mg/ml) was added and the mixture was allowed to react for 3 hours (37° C., 5% CO2). After removing the culture medium, 100 μl of isopropanol was added and the absorbance was measured.
# The ratio of the absorbances of the study group and the control group was employed as an index of brain cell-protecting action.
# δ-opioid receptor [5] = target: T1, δ-opioid receptor; assay: Change in δ-antagonist activity against DPDPE with time in mouse vas deferens (MVD); settings: for Ratio of IC50 Values / Kb: 173 and NTI at 20 nM, 174 and 5'-NTII at 100 nM; for Kb: read-out: Ke
# Method: In this experiment, ddy male mice were used. In a Magnus' tube which is filled with Krebes-Henseleit solution (NaCl […]; KCl 4.7 mM; CaCl2 2.5 mM; KH2 PO4 1.1 mM; NaHCO3 25 mM; glucose 11 mM) kept at 37° C., and into which an atmosphere consisting of 5% carbon dioxide and 95% oxygen was flown, vas deferens taken from the animals was suspended. Electric stimulation was applied through ring-shaped platinum electrodes mounted on the upper and lower portions of the tube at a frequency of 0.1 Hz and 5.0 mS duration. The contraction of the tissue was recorded on polygraph using isometric transducer.
# Then 100 nM of the test compound was added. Twenty minutes later, DPDPE was begun to be added cumulatively. The ratio of IC50 values in the presence and absence of the test compound, Ke value (the molar concentration of the test compound necessary for translating the dose-effect curve to the curve of twice dose) and pA2 value were determined. The pA2 value was determined by the method of Shild et al (Shild, H. O., Br. J. Pharmac. Chamotehr., 4, 277 (1949)). That is, the logarithm of the test compound (log[test compound]) was plotted along the abscissa and the logarithm of the value obtained by subtracting 1 from the ratio of IC50 values was plotted in the presence and absence of the test compound [log(dose ratio-1)] along the ordinate. The pA2 value was determined from the value on the abscissa when the value on the ordinate of the obtained line is 0.
# Using MVD, the antagonist activities of compounds 173 and 174 against DPDPE were determined. The ratio of IC50 values, Ke values and pA2 values at 15 minutes, 30 minutes and 1 hour from the addition of the test compounds were calculated. Since the concentrations of the test compounds are different, the reciprocals of Ke values were plotted in FIGS. 1 and 2.
# immune system = settings: in vitro and in vivo; Kokai No. 3-223288; cited from earlier work
# T1 sequence (P32300 whole entry): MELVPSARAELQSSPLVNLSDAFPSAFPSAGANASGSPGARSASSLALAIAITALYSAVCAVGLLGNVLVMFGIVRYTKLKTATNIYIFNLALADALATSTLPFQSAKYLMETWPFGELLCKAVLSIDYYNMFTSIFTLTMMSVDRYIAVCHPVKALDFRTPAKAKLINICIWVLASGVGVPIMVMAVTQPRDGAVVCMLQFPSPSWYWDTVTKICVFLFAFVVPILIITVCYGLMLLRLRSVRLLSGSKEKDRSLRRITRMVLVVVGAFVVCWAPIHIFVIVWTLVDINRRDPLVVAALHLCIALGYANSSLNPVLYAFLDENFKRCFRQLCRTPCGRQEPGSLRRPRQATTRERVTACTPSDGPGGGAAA
structure (smiles),measurement,setting,value
"Oc1ccc2c3c1O[C@H]1c4[nH]c5ccccc5c4C[C@@]4(O)[C@@H](C2)N(CC2CC2)CC[C@]314 [NTI, reference compound]",Kb,δ-opioid receptor [1],0.21 nM
same,suppressive effect after removing adrenal gland (in words),[2]; Adrenectomy vs sham,disappeared by removing adrenal gland
same,% Suppression,[2]; Adrenectomy,0%
same,% Suppression,[2]; Sham Operation,50%
same,% Suppression,[3],60%
same,brain cell-protecting action (in words),[4]; MTT,has brain cell-protecting action
same,Ratio of Absorbances,"[4]; study group / control group, 570 nm, 3 days culture",4.21
same,Ratio of IC50 Values,δ-opioid receptor [5]; 15 min,96.3
same,Kb,δ-opioid receptor [5]; 15 min,0.21 nM
same,change of antagonist activity with time (in words),δ-opioid receptor [5]; 15 min to 1 hour,did not change
same,Ratio of IC50 Values,δ-opioid receptor [5]; 30 min,95.6
same,Kb,δ-opioid receptor [5]; 30 min,0.21 nM
same,Ratio of IC50 Values,δ-opioid receptor [5]; 60 min,83.7
same,Kb,δ-opioid receptor [5]; 60 min,0.24 nM
same,immunosuppressive action (in words),immune system,exhibits immunosuppressive action in vitro and in vivo
